Like-named read-outs stand apart in the source and are kept apart here.
How the values were obtained:
human CB1 receptor [1] = target: T1, human CB1 receptor (Homo sapiens, UniProt P21554); experiment: Human CB1 receptor binding, [3H] CP-55,940 displacement on HEK cell membranes; design: expressed in transfected cells; host or cells: HEK cells, doxycycline-induced; membrane preparation
How it was run: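 Radioligand displacement: [3H] CP-55,940 at […] final, 1 μg membrane protein per well from HEK cells with tetracycline-inducible human CB1, 60 min at room temperature, pH 7.4 Tris/NaCl/MgCl2/EGTA/BSA buffer. 50 μM WIN-55,212-2 set nonspecific binding; bound label filtered, counted, and fitted for EC50 and Ki values.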

human CB1 receptor [2] = target: T1, human CB1 receptor; experiment: [35S] GTPγS binding on membranes of CHO cells expressing the human CB1 receptor (agonism); assay type: biochemical; design: expressed in transfected cells; membrane preparation
Description: Membrane preparation: CHO cells expressing the human CB1 receptor were grown to 80% confluence in Ham's F-12 Nutrient Medium (Invitrogen) containing 10% fetal bovine serum (Invitrogen), 1% pen/strep (Invitogen), 1% Nonessential amino acids (Invitrogen) and 500 μg/ml G418 (Invitrogen). Cells were released from flasks using Cell Dissociation Buffer (Invitrogen). Cells were pelleted by centrifugation at 500×G for 5 minutes. Membranes were prepared by resuspending cells in ice cold Assay Buffer (25 mM Tris pH 7.4, 5 mM EDTA, 5 mM EGTA, Complete Protease Inhibitor (Roche)). Cells were lysed with 12 strokes of a dounce homogenizer. Unlysed cells were pelleted by centrifugation at 500×G for 5 minutes. Membranes were pelleted by centrifugation at 25,000×G for 30 minutes. Membranes were resuspended in TEE, dounced 12 strokes, and pelleted a second time at 25,000×G for 30 minutes. Membrane pellet was resuspended in 50 mM Tris pH 7.4, 100 mM NaCl, 3 mM MgCl2, 0.2 mM EGTA, Complete Protease Inhibitor (Roche). Protein concentration was determined using the Micro-BCA Protein Assay Kit (Pierce) using BSA as a standard. Membranes were frozen and stored at −80 degrees Celsius until use.
GTPγS Binding: 40 μl of test compound was incubated with 20 μl of [^35S] GTPγS (Perkin Elmer) (1250 Ci/millimole) and 140 μl of membrane homogenate (5 μg/well) in polypropylene 96-well plates (Corning). Final reaction conditions were 50 mM Tris pH 7.4, 100 mM NaCl, 3 mM MgCl2, 0.2 mM EGTA, 0.04% BSA. After incubation at 37 degrees Celsius for 45 minutes reactions were harvested by vacuum filtration through Unifilter GF/B-96 filters (Perkin Elmer) using a FilterMate Plate Harvester (Perkin Elmer). Filters were rinsed 4 times with ice cold 50 mM Tris pH 7.4, 3 mM MgCl2, 0.2 mM EGTA and dried at 50 degrees Celsius for at least 30 minutes. 40 μl of Microscint-20 (Perkin Elmer) was added per well, and plates were counted using a Top-Count Microplate Scintillation Counter (Perkin Elmer). Binding data were analyzed and EC50 values were calculated using Graph Pad Prism 4.0 Software.

[3] = human CB1, CHO cell membranes, read-out: GTPγS EC50
[4] = GTPγS EC50, human CB1, CHO cell membranes

T1 sequence (P21554 whole entry): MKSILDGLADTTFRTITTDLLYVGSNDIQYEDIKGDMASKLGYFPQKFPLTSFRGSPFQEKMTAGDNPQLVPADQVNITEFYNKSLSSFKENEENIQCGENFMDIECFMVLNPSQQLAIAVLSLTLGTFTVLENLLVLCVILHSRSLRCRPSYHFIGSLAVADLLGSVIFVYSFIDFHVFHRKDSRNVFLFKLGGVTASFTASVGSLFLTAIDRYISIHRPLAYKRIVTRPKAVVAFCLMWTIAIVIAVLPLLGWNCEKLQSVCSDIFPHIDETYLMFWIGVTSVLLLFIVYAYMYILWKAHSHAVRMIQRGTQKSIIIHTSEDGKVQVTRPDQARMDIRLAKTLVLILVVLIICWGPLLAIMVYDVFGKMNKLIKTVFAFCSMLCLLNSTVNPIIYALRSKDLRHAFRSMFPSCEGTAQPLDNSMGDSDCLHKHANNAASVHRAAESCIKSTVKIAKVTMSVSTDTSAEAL

SMILES	Ki (human CB1 receptor [1]; read-out: CB1 Ki)	EC50 (human CB1 receptor [2]; [3])	Ki (human CB1 receptor [1]; CB1 Ki)	EC50 (human CB1 receptor [2]; [4])
CC(C)(C)C(NC(=O)c1nn(Cc2ccc(F)cc2)c2ccccc12)c1nnc(C(N)=O)o1 (centres unmarked) [Example 122]	0.73 nM	13.1 nM		
Cc1nnc(CNC(=O)[C@@H](NC(=O)c2nn(Cc3ccc(F)cc3)c3ccccc23)C(C)(C)C)o1 [Example 126]			0.97 nM	2.55 nM
Cc1nnc(CNC(=O)[C@@H](NC(=O)c2nn(Cc3ccc(C#N)cc3)c3ccccc23)C(C)(C)C)o1 [Example 127]			32.8 nM	136 nM
CCOC(=O)c1nnc(CNC(=O)[C@@H](NC(=O)c2nn(Cc3ccc(F)cc3)c3ccccc23)C(C)(C)C)o1 [Example 128]	0.97 nM	3.58 nM		
CCOC(=O)c1nnc(CNC(=O)[C@@H](NC(=O)c2nn(Cc3ccc(C#N)cc3)c3ccccc23)C(C)(C)C)o1 [Example 129]	12.6 nM	106 nM		
CC(C)(C)C(NC(=O)c1nn(Cc2ccc(C#N)cc2)c2ccccc12)C(=O)NCc1nnc(C(N)=O)o1 (centres unmarked) [Example 130]	14.7 nM	72.7 nM		
Cc1nc(CNC(=O)C(NC(=O)c2nn(Cc3ccc(F)cc3)c3ccccc23)C(C)(C)C)no1 (centres unmarked) [Example 131]			0.6 nM	13.2 nM
CC(C)(C)C(NC(=O)c1nn(Cc2ccc(F)cc2)c2ccccc12)C(=O)N1CCC(O)CC1 (centres unmarked) [Example 133]			0.55 nM	6.35 nM
CC(C)(C)C(NC(=O)c1nn(Cc2ccc(C#N)cc2)c2ccccc12)C(=O)N1CCC(O)CC1 (centres unmarked) [Example 134]			32.7 nM	326 nM
CCOC(=O)c1nc(CNC(=O)C(NC(=O)c2nn(Cc3ccc(F)cc3)c3ccccc23)C(C)(C)C)no1 (centres unmarked) [Example 135]	3.47 nM	14.3 nM		
CCOC(=O)c1nc(CNC(=O)C(NC(=O)c2nn(Cc3ccc(C#N)cc3)c3ccccc23)C(C)(C)C)no1 (centres unmarked) [Example 136]	10.7 nM	115 nM		
CC(C)(C)C(NC(=O)c1nn(Cc2ccc(F)cc2)c2ccccc12)C(=O)NCc1noc(C(N)=O)n1 (centres unmarked) [Example 137]	0.69 nM	1.69 nM		
Cc1noc(CNC(=O)C(NC(=O)c2nn(Cc3ccc(F)cc3)c3ccccc23)C(C)(C)C)n1 (centres unmarked) [Example 139]			0.82 nM	6.36 nM
Cc1noc(CNC(=O)C(NC(=O)c2nn(Cc3ccc(C#N)cc3)c3ccccc23)C(C)(C)C)n1 (centres unmarked) [Example 140]			39.3 nM	645 nM
CC(C)(C)C(NC(=O)c1nn(Cc2ccc(F)cc2)c2ccccc12)C(=O)NCCN1CCOCC1 (centres unmarked) [Example 141]	9.42 nM	41.1 nM		
CC(C)(C)C(NC(=O)c1nn(Cc2ccc(F)cc2)c2ccccc12)C(=O)NCCc1nnc(C2CC2)o1 (centres unmarked) [Example 148]	1.8 nM	32.2 nM		
CC(C)(C)C(NC(=O)c1nn(Cc2ccc(F)cc2)c2ccccc12)C(=O)N1CCC(O)C1 (centres unmarked) [Example 151]			1.63 nM	6.3 nM
CC(C)(C)C(NC(=O)c1nn(Cc2ccc(F)cc2)c2ccccc12)C(=O)NC1(CO)CC1 (centres unmarked) [Example 160]			1.45 nM	32.3 nM
CC(C)(C)C(NC(=O)c1nn(Cc2ccc(C#N)cc2)c2ccc(F)cc12)C(N)=O (centres unmarked) [Example 163]			4.45 nM	180 nM
CC(C)(C)C(NC(=O)c1nn(Cc2ccc(C#N)cc2)c2ccc(F)cc12)C(=O)NCCO (centres unmarked) [Example 166]			5.14 nM	132 nM
CC(C)(C)C(NC(=O)c1nn(Cc2ccc(F)cc2)c2ccc(F)cc12)C(N)=O (centres unmarked) [Example 170]			0.27 nM	0.7 nM
CC(C)(C)C(NC(=O)c1nn(Cc2ccc(F)cc2)c2ccc(F)cc12)C(=O)NC1CC1 (centres unmarked) [Example 171]			0.42 nM	0.44 nM

SMILES	Ki (human CB1 receptor [1]; read-out: CB1 Ki)	EC50 (human CB1 receptor [2]; [3])	Ki (human CB1 receptor [1]; CB1 Ki)	EC50 (human CB1 receptor [2]; [4])
CC(C)(C)C(NC(=O)c1nn(Cc2ccc(F)cc2)c2ccc(F)cc12)C(=O)NCCO (centres unmarked) [Example 172]			0.42 nM	0.42 nM
CC(C)(C)C(NC(=O)c1nn(Cc2ccc(F)cc2)c2ccc(F)cc12)C(=O)NCC(N)=O (centres unmarked) [Example 173]			2.37 nM	5.12 nM
CC(C)(C)C(NC(=O)c1nn(Cc2ccc(F)cc2)c2ccc(F)cc12)C(=O)NCCCO (centres unmarked) [Example 174]			1.1 nM	1.81 nM
CC(C)(C)C(NC(=O)c1nn(Cc2ccc(F)cc2)c2c(F)cccc12)C(N)=O (centres unmarked) [Example 175]			0.19 nM	0.64 nM
CC(C)(C)C(NC(=O)c1nn(Cc2ccc(F)cc2)c2c(F)cccc12)C(=O)NC1CC1 (centres unmarked) [Example 176]			0.22 nM	0.51 nM
CC(C)(C)C(NC(=O)c1nn(Cc2ccc(F)cc2)c2c(F)cccc12)C(=O)NCCO (centres unmarked) [Example 177]			0.28 nM	0.31 nM
CC(C)(C)C(NC(=O)c1nn(Cc2ccc(F)cc2)c2c(F)cccc12)C(=O)NCCCO (centres unmarked) [Example 178]			0.56 nM	1.61 nM
CC(C)(C)C(NC(=O)c1nn(Cc2ccc(F)cc2)c2c(F)cccc12)C(=O)NCC(N)=O (centres unmarked) [Example 179]			0.87 nM	5.41 nM
CC(C)(C)C(NC(=O)c1nn(Cc2ccc(F)cc2)c2c(F)cccc12)C(=O)NCc1nnc(C(N)=O)o1 (centres unmarked) [Example 180]	0.37 nM	3.81 nM		
CC(C)(C)C(NC(=O)c1nn(Cc2ccc(F)cc2)c2c(Cl)cccc12)C(N)=O (centres unmarked) [Example 181]			0.1 nM	0.33 nM
CC(C)(C)C(NC(=O)c1nn(Cc2ccc(F)cc2)c2c(Cl)cccc12)C(=O)NC1CC1 (centres unmarked) [Example 182]			0.34 nM	2.23 nM
CC(C)(C)C(NC(=O)c1nn(Cc2ccc(F)cc2)c2c(Cl)cccc12)C(=O)NCCO (centres unmarked) [Example 183]			0.26 nM	0.83 nM
CC(C)(C)C(NC(=O)c1nn(Cc2ccc(F)cc2)c2c(Cl)cccc12)C(=O)NCCCO (centres unmarked) [Example 184]			0.37 nM	3.94 nM
CC(C)(C)C(NC(=O)c1nn(Cc2ccc(F)cc2)c2c(Cl)cccc12)C(=O)NCC(N)=O (centres unmarked) [Example 185]			0.51 nM	10.2 nM
CC(C)(C)C(NC(=O)c1nn(Cc2ccc(F)cc2)c2c(F)cccc12)C(=O)NCCNS(=O)(=O)C1CC1 (centres unmarked) [Example 186]	0.19 nM	1.03 nM		
CC(C)(C)[C@H](NC(=O)c1nn(Cc2ccc(F)cc2)c2c(Cl)cccc12)C(=O)NCCNS(=O)(=O)C1CC1 [Example 187]	0.09 nM	1.09 nM		
CC(C)(C)C(NC(=O)c1nn(Cc2ccc(C#N)cc2)c2c(Cl)cccc12)C(=O)NC1CC1 (centres unmarked) [Example 198]			1.19 nM	7.07 nM
CC(C)(C)C(NC(=O)c1nn(Cc2ccc(C#N)cc2)c2c(Cl)cccc12)C(=O)NCCO (centres unmarked) [Example 199]			1.32 nM	8.94 nM
CC(C)(C)C(NC(=O)c1nn(Cc2ccc(C#N)cc2)c2c(Cl)cccc12)C(=O)NCCCO (centres unmarked) [Example 200]			4.8 nM	35 nM
CC(C)(C)C(NC(=O)c1nn(Cc2ccc(C#N)cc2)c2c(Cl)cccc12)C(=O)NCC(N)=O (centres unmarked) [Example 201]			14.2 nM	70.1 nM
CC(C)(C)C(NC(=O)c1nn(Cc2ccc(C#N)cc2)c2c(Cl)cccc12)C(=O)NCCNS(=O)(=O)C1CC1 (centres unmarked) [Example 202]	0.8 nM	3.07 nM		

From patent publication US20110028447A1, “INDAZOLE DERIVATIVES” (Pfizer Inc., priority 2008, published 2011)
